The source of these data is US7517987B2, “Caspase inhibitors and uses thereof” (Vertex Pharmaceutical Incorporated, priority 1999, dated 2009).

The target in one test is T1, Caspase-3 (Homo sapiens, UniProt P42574).
T1 sequence (P42574 29-175 limits assumed): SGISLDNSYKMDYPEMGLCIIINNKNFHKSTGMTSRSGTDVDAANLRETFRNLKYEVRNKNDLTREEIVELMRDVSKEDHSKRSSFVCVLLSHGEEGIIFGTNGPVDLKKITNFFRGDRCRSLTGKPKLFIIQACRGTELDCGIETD
T1 sequence (P42574 176-277 limits assumed): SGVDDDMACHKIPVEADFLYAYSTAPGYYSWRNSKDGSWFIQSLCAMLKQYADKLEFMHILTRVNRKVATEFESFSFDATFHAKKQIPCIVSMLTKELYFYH
The test is described as follows: Caspase-3 enzyme assay, cleavage of fluorogenic substrate. The test is classed as biochemical. The conditions noted are these: second order rate constant of enzyme inactivation; substrate Acetyl-Asp-Glu-val-Asp-amino-4-methylcoumarin. From the text: (§1) The assays for caspase inhibition are based on the cleavage of a fluorogenic substrate by recombinant, purified human Caspases-1, -3, -7 or -8. The assays are run in essentially the same way as those reported by Garcia-Calvo et al. (J. Biol. Chem. 273 (1998), 32608-32613), using a substrate specific for each enzyme. The substrate for Caspase-1 is Acetyl-Tyr-Val-Ala-Asp-amino-4-methylcoumarin. The substrate for Caspases-3, -7 and -8 is Acetyl-Asp-Glu-val-Asp-amino-4-methylcoumarin.
(§2) The observed rate of enzyme inactivation at a particular inhibitor concentration, kobs, is computed by direct fits of the data to the equation derived by Thornberry et al. (Biochemistry 33 (1994), 3943-3939) using a nonlinear least-squares analysis computer program (PRISM 2.0; GraphPad software). To obtain the second order rate constant, kinact, kobs values are plotted against their respective inhibitor concentrations and kinact values are subsequently calculated by computerized linear regression.

For another test, the system named is Jurkat E6.1 cells. Nature of the test: Anti-Fas induced apoptosis assay. The test is classed as cell-based. The note with it: Homo sapiens, anti-Fas antibody CH-11 10 ng/ml, 16-18 hrs, DNA fragmentation, OD405 nm. An excerpt:
Cellular apoptosis may be induced by the binding of Fas ligand (FasL) to its receptor, CD95 (Fas). CD95 is one of a family of related receptors, known as death receptors, which can trigger apoptosis in cells via activation of the caspase enzyme cascade. The process is initiated by the binding of the adapter molecule FADD/MORT-1 to the cytoplasmic domain of the CD-95 receptor-ligand complex. Caspase-8 then binds FADD and becomes activated, initiating a cascade of events that involve the activation of downstream caspases and subsequent cellular apoptosis. Apoptosis can also be induced in cells expressing CD95 eg the Jurkat E6.1 T cell lymphoma cell line, using an antibody, rather than FasL, to crosslink the cell surface CD95. Anti-Fas-induced apoptosis is also triggered via the activation of caspase-8. This provides the basis of a cell based assay to screen compounds for inhibition of the caspase-8-mediated apoptotic pathway.
Jurkat E6.1 cells are cultured in complete medium consisting of RPMI-1640 (Sigma No)+10% foetal calf serum (Gibco BRL No. 10099-141)+2 mM L-glutamine (Sigma No. G-7513). The cells are harvested in log phase of growth. 100 ml Cells at 5-8×10^5 cells/ml are transferred to sterile 50 ml Falcon centrifuge tubes and centrifuged for 5 minutes at 100×g at room temperature. The supernatant is removed and the combined cell pellets resuspended in 25 ml of complete medium. The cells are counted and the density adjusted to 2×10^6cells/ml with complete medium.
The test compound is dissolved in dimethyl sulphoxide (DMSO)(Sigma No. D-2650) to give a 100 mM stock solution. This is diluted to 400 μM in complete medium, then serially diluted in a 96-well plate prior to addition to the cell assay plate.
100 μl of the cell suspension ([…]) is added to each well of a sterile 96-well round-bottomed cluster plate (Costar No. 3790). 501l of compound solution at the appropriate dilution and 50 μl of anti-Fas antibody, clone CH-11 (Kamiya No.MC-060) at a final concentration of 10 ng/ml, are added to the wells. Control wells are set up minus antibody and minus compound but with a serial dilution of DMSO as vehicle control. The plates are incubated for 16-18 hrs at 37° C. in 5% CO2 and 95% humidity.
Apoptosis of the cells is measured by the quantitation of DNA fragmentation using a ‘Cell Death Detection Assay’ from Boehringer-Mannheim, No. 1544 675. After incubation for 16-18 hrs the assay plates are centrifuged at 100×g at room temperature for 5 minutes. 150 μl of the supernatant are removed and replaced by 150 μl of fresh complete medium. The cells are then harvested and 200 μl of the lysis buffer supplied in the assay kit are added to each well. The cells are triturated to ensure complete lysis and incubated for 30 minutes at 4° C. The plates are then centrifuged at 1900×g for 10 minutes and the supernatants diluted 1:20 in the incubation buffer provided. 100 μl of this solution is then assayed exactly according to the manufacturer's instructions supplied with the kit. OD405 nm is measured 20 minutes after addition of the final substrate in a SPECTRAmax Plus plate reader (Molecular Devices). OD405 nm is plotted versus compound concentration and the IC50 values for the compounds are calculated using the curve fitting program SOFTmax Pro (Molecular Devices) using the four parameter fit option.

For a further test, the target named is T2, Caspase-7 (Homo sapiens, UniProt P55210).
T2 sequence (P55210 24-198 limits assumed): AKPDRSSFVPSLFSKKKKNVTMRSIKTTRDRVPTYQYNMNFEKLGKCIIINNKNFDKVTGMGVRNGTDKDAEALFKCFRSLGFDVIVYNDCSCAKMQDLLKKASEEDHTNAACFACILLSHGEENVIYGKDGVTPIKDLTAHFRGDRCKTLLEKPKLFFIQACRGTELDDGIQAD
T2 sequence (P55210 207-303 limits assumed): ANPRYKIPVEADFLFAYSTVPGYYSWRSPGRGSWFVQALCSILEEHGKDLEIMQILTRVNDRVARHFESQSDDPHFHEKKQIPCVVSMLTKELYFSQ
Nature of the test: Caspase-7 enzyme assay, cleavage of fluorogenic substrate. It is filed as biochemical. The note with it: second order rate constant of enzyme inactivation; substrate Acetyl-Asp-Glu-val-Asp-amino-4-methylcoumarin.
Source text: as §1, §2

The next test deals with T3, Caspase-1 (Homo sapiens, UniProt P29466).
T3 sequence (P29466 120-297 limits assumed): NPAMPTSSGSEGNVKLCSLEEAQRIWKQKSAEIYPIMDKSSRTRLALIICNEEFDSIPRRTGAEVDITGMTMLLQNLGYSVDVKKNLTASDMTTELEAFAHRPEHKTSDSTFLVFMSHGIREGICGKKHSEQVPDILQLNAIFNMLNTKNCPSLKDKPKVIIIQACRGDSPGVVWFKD
T3 sequence (P29466 317-404 limits assumed): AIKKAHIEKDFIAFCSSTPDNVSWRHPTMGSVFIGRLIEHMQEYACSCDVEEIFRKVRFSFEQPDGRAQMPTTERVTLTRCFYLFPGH
Nature of the test: Caspase-1 enzyme assay, cleavage of fluorogenic substrate. The conditions noted are these: second order rate constant of enzyme inactivation; substrate Acetyl-Tyr-Val-Ala-Asp-amino-4-methylcoumarin. The test is classed as biochemical.
Source text: as §1, §2

The test system of test [1] is IL-1β secretion from peripheral blood mononuclear cells (PBMC). Nature of the test: Inhibition of IL-1β secretion from mixed population of PBMC. It is filed as cell-based. The conditions noted are these: Homo sapiens, LPS 50 ng/ml, 16-18 h, mature IL-1β in supernatant. The method, then: Processing of pre-IL-1β by caspase-1 can be measured in cell culture using a variety of cell sources. Human PBMC obtained from healthy donors provides a mixed population of lymphocyte and mononuclear cells that produce a spectrum of interleukins and cytokines in response to many classes of physiological stimulators.
The test compound is dissolved in dimethyl sulfoxide (DMSO,Sigma #D-2650) to give a 100 mM stock solution. This is diluted in complete medium consisting of RPMI containing 10% heat inactivated FCS (Gibco BRL #10099-141), 2 mM L-Glutamine (Sigma, #G-7513), 100U penicillin and 100 μg/ml streptomycin (Sigma #P-7539). The final concentration range of test compound is from 100 μM down to 6 nM over eight dilution steps. The highest concentration of test compound is equivalent to 0.1% DMSO in the assay.
Human PBMC are isolated from Buffy Coats obtained from the blood bank using centrifugation on Ficoll-Paque leukocyte separation medium (Amersham, #17-1440-O2) and the cellular assay is performed in a sterile 96 well flat-bottomed plate (Nunc). Each well contains 100 μl of the cell suspension, 1×10^5 cells, 50 μl of compound dilutions and 50 μl of LPS (Sigma #L-3012) at 50 ng/ml final concentration. Controls consist of cells ± LPS stimulation and a serial dilution of DMSO diluted in the same way as compound. The plates are incubated for 16-18 h at 37° C. in 5% CO2 & 95% humidity atmosphere.
After 16-18 h the supernatants are harvested after centrifuging the plates at 100×g at 18° C. for 15 min and assayed for their IL-1β content. Measurement of mature IL-1β in the supernatant is performed using the Quantikine kits (R&D Systems) according to manufacturer's instructions. Mature IL-1β levels of about 600-1500 pg/ml are observed for PBMCs in positive control wells.
The inhibitory potency of the compounds can be represented by an IC50 value, which is the concentration of inhibitor at which 50% of the mature IL-1β is detected in the supernatant as compared to the positive controls.

A further test deals with Caspase-8 (Homo sapiens, UniProt Q14790). The test is described as follows: Caspase-8 enzyme assay, cleavage of fluorogenic substrate. The note with it: second order rate constant of enzyme inactivation; substrate Acetyl-Asp-Glu-val-Asp-amino-4-methylcoumarin. It is filed as biochemical.
Chain of Caspase-8 (Q14790 217-374 limits assumed): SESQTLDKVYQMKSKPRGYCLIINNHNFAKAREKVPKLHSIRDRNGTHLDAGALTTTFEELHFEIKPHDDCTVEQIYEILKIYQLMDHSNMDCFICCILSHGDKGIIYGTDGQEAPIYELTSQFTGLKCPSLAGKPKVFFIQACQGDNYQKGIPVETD
Chain of Caspase-8 (Q14790 385-479 limits assumed): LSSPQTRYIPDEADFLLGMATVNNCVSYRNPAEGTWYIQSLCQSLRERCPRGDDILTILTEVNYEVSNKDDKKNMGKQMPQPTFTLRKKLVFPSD
Source text: as §1, §2

SMILES strings stand for the structures.

For the compound `O=C(O)CC(NC(=O)Cn1ccc2ccccc2c1=O)C(=O)CF` (stereo not drawn) [Compound 1C-1, 5-Fluoro-4-oxo-3-[2-(1-oxo-1H-isoquinolin-2-yl)-acetylamino]-pentanoic acid], the values for the Kinact at Caspase-3 and on Caspase-1 were 130000 M⁻¹ s⁻¹ and 248000 M⁻¹ s⁻¹, respectively. Further, the figures for the concentration for half-maximal inhibition (IC50) (in the test on Jurkat E6.1 cells; in test [1]) were 60 nM and 2900 nM, respectively. In addition, the “Caspase-7 Kinact” value on Caspase-7 is 26000 M⁻¹ s⁻¹. For the same compound, the “Caspase-8 Kinact” value at Caspase-8 is 27000 M⁻¹ s⁻¹.
On to `C[C@@H](C(=O)NC(CC(=O)O)C(=O)CF)N1C(=O)c2ccccc2C1=O` (stereo partly drawn) [Compound 1F-3, 5-Fluoro-4-oxo-3-[(2S)-2-(1,3-dioxo-1,3-dihydro-isoindol-2-yl)-propionylamino]-pentanoic acid], for which the Kinact at Caspase-3 is 220000 M⁻¹ s⁻¹; at Caspase-1, 115000 M⁻¹ s⁻¹. The IC50 (commonly the concentration at which inhibition is half-maximal) turned out to be 30 nM in the test with Jurkat E6.1 cells and 4000 nM in test [1]. In addition, the “Caspase-8 Kinact” value at Caspase-8 turned out to be 15500 M⁻¹ s⁻¹.
Regarding `C[C@@H](C(=O)NC(CC(=O)O)C(=O)CF)n1c(=O)ccc2ccccc21` (stereo partly drawn) [Compound 1B-1, 5-Fluoro-4-oxo-3-[(S)-2-(2-oxo-2H-quinolin-1-yl)-propionylamino]-pentanoic acid], the Kinact at Caspase-3 was 24000 M⁻¹ s⁻¹; at Caspase-1 it was 47000 M⁻¹ s⁻¹. This compound yielded an IC50 in the test with Jurkat E6.1 cells of 140 nM. Also, the “Caspase-8 Kinact” value on Caspase-8 was 12000 M⁻¹ s⁻¹.
Take `O=C(O)CC(NC(=O)Cn1ccc(-c2ccccc2)cc1=O)C(=O)CF` (stereo not drawn) [Compound 1A-4, 5-Fluoro-3-[2-(4-phenyl-2-oxo-2H-pyridin-1-yl)-acetylamino]-4-oxo-pentanoic acid]: the half-maximal inhibitory concentration (IC50) in the test with Jurkat E6.1 cells is 650 nM. The compound also yielded a Kinact at Caspase-1 of 40000 M⁻¹ s⁻¹. For the same compound, on Caspase-8, the “Caspase-8 Kinact” value was determined as 13500 M⁻¹ s⁻¹.
Turning to `CCC[C@@H](C(=O)NC(CC(=O)O)C(=O)CF)n1cnc2ccccc2c1=O` (stereo partly drawn) [Compound 1C-11, 5-Fluoro-4-oxo-3-[(2S)-2-(4-oxo-4H-quinazolin-3-yl)-pentanoylamino]-pentanoic acid], the Kinact at Caspase-3 is 185000 M⁻¹ s⁻¹; on Caspase-1, 419000 M⁻¹ s⁻¹. In addition, the IC50 in the test with Jurkat E6.1 cells worked out at 20 nM; in test [1], 400 nM. Moreover, the “Caspase-8 Kinact” value at Caspase-8 was determined as 72500 M⁻¹ s⁻¹.
In the case of `CC[C@@H](C(=O)NC(CC(=O)O)C(=O)CF)n1cnccc1=O` (stereo partly drawn) [Compound 1G-1, 5-Fluoro-4-oxo-3-[(2S)-2-(6-oxo-6H-pyrimidin-1-yl)-butyrylamino]-pentanoic acid], the results for the Kinact at Caspase-3 and at Caspase-1 were 420000 M⁻¹ s⁻¹ and 307000 M⁻¹ s⁻¹, respectively. The values for the IC50 (in the test with Jurkat E6.1 cells; in test [1]) were 20 nM and 600 nM, respectively. On Caspase-7, the “Caspase-7 Kinact” value came out at 147000 M⁻¹ s⁻¹. Besides, the “Caspase-8 Kinact” value on Caspase-8 is 68500 M⁻¹ s⁻¹.
On to `Cc1cccc(=O)n1CC(=O)NC(CC(=O)O)C(=O)CF` (stereo not drawn) [Compound 1A-3, 5-Fluoro-3-[2-(6-methyl-2-oxo-2H-pyridin-1-yl)-acetylamino]-4-oxo-pentanoic acid], for which the Kinact at Caspase-3 is 51000 M⁻¹ s⁻¹; at Caspase-1 it was 36000 M⁻¹ s⁻¹. Also, in the test with Jurkat E6.1 cells, the IC50 turned out to be 210 nM. Also, the “Caspase-8 Kinact” value at Caspase-8 is 6750 M⁻¹ s⁻¹.
The corresponding values for `CC(C)[C@@H](C(=O)NC(CC(=O)O)C(=O)CF)N1Cc2ccccc2N(Cc2cccc(Cl)c2)C1=O` (stereo partly drawn) [Compound 1D-1, 5-Fluoro-4-oxo-3-[(2S)-2-[1-(3-chlorobenzyl)-2-oxo-1,4-dihydro-2H-quinazolin-3-yl]-3-methyl-butyrylamino]-pentanoic acid] are 67000 M⁻¹ s⁻¹, 107000 M⁻¹ s⁻¹, 20 nM and 77000 M⁻¹ s⁻¹.
For `O=C(O)CC(NC(=O)Cn1cnc2sccc2c1=O)C(=O)CF` (stereo not drawn) [Compound 1E-1, 5-Fluoro-4-oxo-3-[2-(4-oxo-4H-thieno[2,3-d]pyrimidin-3-yl)-acetylamino]-pentanoic acid], the Kinact turned out to be 64000 M⁻¹ s⁻¹ on Caspase-3 and 46000 M⁻¹ s⁻¹ at Caspase-1. For the same compound, the 50% inhibitory concentration (IC50) came to 70 nM in the test with Jurkat E6.1 cells and 10000 nM in test [1]. Besides, the “Caspase-8 Kinact” value on Caspase-8 came out at 13500 M⁻¹ s⁻¹.
